The source made the active and inactive calls.
Assays:
[1] = biological target: T1, Replicative DNA helicase DnaB (Mycobacterium tuberculosis, UniProt P9WMR3); experiment: DnaB intein splicing inhibitors, dose response, biochemical, cell-free fluorescence (AID 449749); assay type: functional
T1 sequence (P9WMR3 whole entry): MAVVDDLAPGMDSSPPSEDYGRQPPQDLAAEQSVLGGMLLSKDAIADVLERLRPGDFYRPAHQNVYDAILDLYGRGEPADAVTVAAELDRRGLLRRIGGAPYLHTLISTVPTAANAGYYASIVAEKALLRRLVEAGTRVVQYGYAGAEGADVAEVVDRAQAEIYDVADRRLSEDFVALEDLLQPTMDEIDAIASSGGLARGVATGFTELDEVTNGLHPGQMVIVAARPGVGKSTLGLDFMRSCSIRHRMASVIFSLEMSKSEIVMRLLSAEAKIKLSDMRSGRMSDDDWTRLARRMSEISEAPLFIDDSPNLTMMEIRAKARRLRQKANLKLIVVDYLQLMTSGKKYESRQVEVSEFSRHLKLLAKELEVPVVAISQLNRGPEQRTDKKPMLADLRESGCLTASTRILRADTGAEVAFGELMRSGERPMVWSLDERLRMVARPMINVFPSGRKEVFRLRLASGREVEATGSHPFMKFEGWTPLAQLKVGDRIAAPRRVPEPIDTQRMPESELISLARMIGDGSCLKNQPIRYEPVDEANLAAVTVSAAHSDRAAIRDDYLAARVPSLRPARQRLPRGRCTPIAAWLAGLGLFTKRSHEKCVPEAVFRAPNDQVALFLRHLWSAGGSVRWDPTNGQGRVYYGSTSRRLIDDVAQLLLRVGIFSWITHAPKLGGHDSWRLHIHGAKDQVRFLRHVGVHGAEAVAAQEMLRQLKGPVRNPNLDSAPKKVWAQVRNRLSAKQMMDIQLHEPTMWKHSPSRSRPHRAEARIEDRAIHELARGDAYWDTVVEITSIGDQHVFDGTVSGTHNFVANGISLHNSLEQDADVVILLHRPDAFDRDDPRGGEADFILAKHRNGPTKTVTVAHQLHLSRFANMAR

[2] = biological target: T2, Protein RecA (Mycobacterium tuberculosis, UniProt P9WHJ3); experiment: Fluorescence Cell-Free Homogeneous Dose Retest to Identify Inhibitors of RecA-Intein Splicing Activity. [Related pubchem assays (depositor defined):AID2097, AID2223, AID489010, AID492950]; assay type: functional
T2 sequence (P9WHJ3 whole entry): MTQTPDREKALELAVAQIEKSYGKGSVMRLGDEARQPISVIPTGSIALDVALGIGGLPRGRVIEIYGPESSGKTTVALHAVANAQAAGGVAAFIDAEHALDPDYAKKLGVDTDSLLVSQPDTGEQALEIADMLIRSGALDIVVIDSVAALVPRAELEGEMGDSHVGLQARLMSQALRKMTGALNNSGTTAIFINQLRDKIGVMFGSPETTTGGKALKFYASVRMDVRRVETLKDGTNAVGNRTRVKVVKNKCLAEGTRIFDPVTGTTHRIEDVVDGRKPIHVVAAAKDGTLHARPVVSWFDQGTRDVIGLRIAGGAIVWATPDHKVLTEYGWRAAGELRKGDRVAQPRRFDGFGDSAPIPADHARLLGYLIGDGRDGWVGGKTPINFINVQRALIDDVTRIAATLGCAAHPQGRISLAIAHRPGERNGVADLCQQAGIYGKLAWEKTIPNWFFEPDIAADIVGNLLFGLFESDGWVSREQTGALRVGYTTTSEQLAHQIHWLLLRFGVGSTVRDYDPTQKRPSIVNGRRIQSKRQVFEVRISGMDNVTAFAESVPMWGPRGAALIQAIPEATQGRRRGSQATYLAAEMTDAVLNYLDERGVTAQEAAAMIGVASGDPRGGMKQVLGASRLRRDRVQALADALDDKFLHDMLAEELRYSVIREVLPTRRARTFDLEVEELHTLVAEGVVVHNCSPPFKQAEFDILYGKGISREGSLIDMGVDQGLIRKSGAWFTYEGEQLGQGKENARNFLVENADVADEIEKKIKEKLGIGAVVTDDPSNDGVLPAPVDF

[3] = biological target: T3, Fatty acid synthase (Homo sapiens, UniProt P49327); experiment: FAS thioesterase domain inhibitors, dose response, biochemical, endpoint fluorescence intensity, uHTS hits (AID 624327); assay type: functional;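 note: fluorescence from hydrolysis of an O-methyl fluorescein acyl ester substrate by the enzyme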
[4] = biological target: T3, Fatty acid synthase; experiment: FAS thioesterase domain inhibitors, dose response, biochemical, kinetic fluorescence intensity (AID 624326); assay type: functional;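 note: rate of fluorescence rise from hydrolysis of a fluorogenic O-methyl fluorescein ester substrate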
[5] = biological target: Cytochrome P450 2C9 (Homo sapiens, UniProt P11712)
[6] = biological target: FAD-linked sulfhydryl oxidase ALR (Homo sapiens, UniProt P55789); experiment: inhibitors of human ALR sulfhydryl oxidase, dose response, biochemical, H2O2 detection, luminescence, cherry-pick (AID 493248)
[7] = inhibitors of intracellular T. cruzi replication, confirmation, NIH3T3 host cells, beta-gal luminescence (AID 2044); assay type: functional, cell-based;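 note: intracellular parasites grown in NIH/3T3 mouse fibroblasts as host cells; luminescent beta-galactosidase reporter signal from transgenic T. cruzi replicating inside host cells; inhibitors lower the luminescence signal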
[8] = HepG2 cell cytotoxicity, dose response, cytotoxicity control for Shn3 inhibitor project, CellTiter-Glo, cherry-picked (AID 624134); assay type: functional, cell-based
[9] = cytotoxicity toward NIH3T3 fibroblasts, dose response, counter-screen, cell-based, ATP luminescence, mouse fibroblasts (AID 2010); assay type: functional;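 note: cells exposed to compound for about 90 hours before reading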
[10] = control 3'UTR Renilla luciferase suppression, dose response, counter-screen for Shn3 inhibitor project, cell-based, Clone20-Shn3RL, cherry-picked (AID 624133); assay type: functional
[11] = system: INS1; experiment: beta cell apoptosis inhibitors, cytokine rescue, dose response, luminescence, retest (AID 449756); assay type: functional, cell-based; conditions: Rattus norvegicus;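 note: cell death triggered by IL-1 beta plus TNF-alpha plus IFN-gamma mixture; protective hits raise ATP signal compared with cytokine alone wells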
[12] = Shn3 3'UTR reporter inhibitors, dose response, cell-based, Clone20 osteoblasts, firefly luciferase, cherry-picked (AID 624132); assay type: functional;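 note: firefly luciferase luminescence from reporter carrying the Shn3 3'UTR in osteoblasts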
[13] = inhibitors of SNCA 5'UTR-driven reporter translation, confirmation, H4 neuroglioma cells, luminescence (AID 1988); assay type: functional, cell-based
[14] = inhibitors of firefly luciferase expression or activity, dose response, H4 neuroglioma cells, luminescence (AID 1990); assay type: functional, cell-based
[15] = Luminescence Cell-Based Dose Response HTS to Identify Inhibitors of 5'UTR Stem-Loop Driven Prion Protein mRNA Translation in H4 Neuroglioblastoma Cells. [Related pubchem assays: 1827 (Project Summary), 1813 (Primary HTS)]; assay type: functional
[16] = biological target: T4, DNA repair protein RAD52 homolog (Homo sapiens, UniProt P43351); assay type: functional, biochemical
T4 sequence (P43351 whole entry): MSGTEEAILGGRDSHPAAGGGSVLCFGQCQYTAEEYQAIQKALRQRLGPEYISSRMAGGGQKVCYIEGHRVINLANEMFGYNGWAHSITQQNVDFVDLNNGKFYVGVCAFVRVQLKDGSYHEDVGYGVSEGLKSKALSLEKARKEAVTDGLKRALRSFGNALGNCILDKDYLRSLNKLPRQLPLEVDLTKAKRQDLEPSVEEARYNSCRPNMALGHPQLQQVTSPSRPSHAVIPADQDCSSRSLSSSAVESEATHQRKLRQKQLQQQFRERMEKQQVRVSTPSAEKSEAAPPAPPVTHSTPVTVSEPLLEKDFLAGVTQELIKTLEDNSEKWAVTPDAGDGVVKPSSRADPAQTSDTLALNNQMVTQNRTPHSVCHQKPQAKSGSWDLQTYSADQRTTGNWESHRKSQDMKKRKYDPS

[17] = biological target: T5, Short transient receptor potential channel 4 (Mus musculus, UniProt Q9QUQ5); experiment: mouse TRPC4 channel activators, dose response, cell-based, HEK293 TRPC4/mu-opioid, Fluo-4 calcium (AID 434937); assay type: functional
T5 sequence (Q9QUQ5 whole entry): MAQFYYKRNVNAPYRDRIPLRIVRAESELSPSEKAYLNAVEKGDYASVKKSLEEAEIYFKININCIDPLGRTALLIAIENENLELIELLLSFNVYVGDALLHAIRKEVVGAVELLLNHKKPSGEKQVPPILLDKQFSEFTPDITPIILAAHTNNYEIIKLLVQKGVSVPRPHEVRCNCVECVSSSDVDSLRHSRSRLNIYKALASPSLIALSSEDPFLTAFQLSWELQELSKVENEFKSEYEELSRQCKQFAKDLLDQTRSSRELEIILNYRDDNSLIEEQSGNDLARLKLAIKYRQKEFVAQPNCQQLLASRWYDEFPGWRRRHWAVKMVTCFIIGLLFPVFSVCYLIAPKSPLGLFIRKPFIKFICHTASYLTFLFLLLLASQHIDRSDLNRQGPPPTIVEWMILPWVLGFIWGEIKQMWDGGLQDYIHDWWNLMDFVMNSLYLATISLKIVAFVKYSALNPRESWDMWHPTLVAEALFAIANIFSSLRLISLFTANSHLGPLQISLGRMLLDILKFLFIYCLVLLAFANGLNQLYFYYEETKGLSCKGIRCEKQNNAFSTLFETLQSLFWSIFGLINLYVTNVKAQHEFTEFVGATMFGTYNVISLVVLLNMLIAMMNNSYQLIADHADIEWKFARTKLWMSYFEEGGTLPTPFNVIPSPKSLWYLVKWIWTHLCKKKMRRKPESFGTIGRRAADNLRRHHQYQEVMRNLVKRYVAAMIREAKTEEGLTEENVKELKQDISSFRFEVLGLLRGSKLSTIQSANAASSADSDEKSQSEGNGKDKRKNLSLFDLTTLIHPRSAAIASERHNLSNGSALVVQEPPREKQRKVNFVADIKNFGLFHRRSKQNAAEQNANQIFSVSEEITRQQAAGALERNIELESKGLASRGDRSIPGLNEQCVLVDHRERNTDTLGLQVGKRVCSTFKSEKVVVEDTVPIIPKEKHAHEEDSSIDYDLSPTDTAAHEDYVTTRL

[18] = system: Streptococcus sp. 'group A'; experiment: growth inhibition of control SK(-) GAS strain, dose response, counter-screen for streptokinase expression inhibitor project, luminescence, kanamycin, BacTiterGlo, confirmation (AID 1900); assay type: functional, organism-based
[19] = system: Streptococcus; experiment: Group A Streptococcus viability loss, dose response, counter-screen for streptokinase expression inhibitor project, luminescence, BacTiterGlo (AID 1915); assay type: functional, organism-based;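 note: potency for reduction of bacterial viability or growth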
[20] = P. falciparum 3D7-ScDHODH growth inhibitors, dose response, SYBR Green, dry powder samples (AID 1159570); assay type: functional, cell-based;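 note: parasite growth measured after 72 hours of compound exposure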
[21] = P. falciparum Dd2 growth inhibitors, dose response, SYBR Green, dry powder samples (AID 1159566); assay type: functional, cell-based;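 note: potency for growth inhibition with lower SYBR green DNA signal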
[22] = P. falciparum Dd2 growth inhibitors, dose response, SYBR Green, cherry-picked samples (AID 1159567); assay type: functional, cell-based
[23] = P. falciparum ATP4 D1247Y mutant growth inhibitors, dose response, NITD609-resistant line, SYBR Green, dry powder (AID 1159571); assay type: functional, cell-based;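 note: parasites synchronized at ring stage by sorbitol before testing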

T3 sequence (P49327 whole entry, the tested form may be a part): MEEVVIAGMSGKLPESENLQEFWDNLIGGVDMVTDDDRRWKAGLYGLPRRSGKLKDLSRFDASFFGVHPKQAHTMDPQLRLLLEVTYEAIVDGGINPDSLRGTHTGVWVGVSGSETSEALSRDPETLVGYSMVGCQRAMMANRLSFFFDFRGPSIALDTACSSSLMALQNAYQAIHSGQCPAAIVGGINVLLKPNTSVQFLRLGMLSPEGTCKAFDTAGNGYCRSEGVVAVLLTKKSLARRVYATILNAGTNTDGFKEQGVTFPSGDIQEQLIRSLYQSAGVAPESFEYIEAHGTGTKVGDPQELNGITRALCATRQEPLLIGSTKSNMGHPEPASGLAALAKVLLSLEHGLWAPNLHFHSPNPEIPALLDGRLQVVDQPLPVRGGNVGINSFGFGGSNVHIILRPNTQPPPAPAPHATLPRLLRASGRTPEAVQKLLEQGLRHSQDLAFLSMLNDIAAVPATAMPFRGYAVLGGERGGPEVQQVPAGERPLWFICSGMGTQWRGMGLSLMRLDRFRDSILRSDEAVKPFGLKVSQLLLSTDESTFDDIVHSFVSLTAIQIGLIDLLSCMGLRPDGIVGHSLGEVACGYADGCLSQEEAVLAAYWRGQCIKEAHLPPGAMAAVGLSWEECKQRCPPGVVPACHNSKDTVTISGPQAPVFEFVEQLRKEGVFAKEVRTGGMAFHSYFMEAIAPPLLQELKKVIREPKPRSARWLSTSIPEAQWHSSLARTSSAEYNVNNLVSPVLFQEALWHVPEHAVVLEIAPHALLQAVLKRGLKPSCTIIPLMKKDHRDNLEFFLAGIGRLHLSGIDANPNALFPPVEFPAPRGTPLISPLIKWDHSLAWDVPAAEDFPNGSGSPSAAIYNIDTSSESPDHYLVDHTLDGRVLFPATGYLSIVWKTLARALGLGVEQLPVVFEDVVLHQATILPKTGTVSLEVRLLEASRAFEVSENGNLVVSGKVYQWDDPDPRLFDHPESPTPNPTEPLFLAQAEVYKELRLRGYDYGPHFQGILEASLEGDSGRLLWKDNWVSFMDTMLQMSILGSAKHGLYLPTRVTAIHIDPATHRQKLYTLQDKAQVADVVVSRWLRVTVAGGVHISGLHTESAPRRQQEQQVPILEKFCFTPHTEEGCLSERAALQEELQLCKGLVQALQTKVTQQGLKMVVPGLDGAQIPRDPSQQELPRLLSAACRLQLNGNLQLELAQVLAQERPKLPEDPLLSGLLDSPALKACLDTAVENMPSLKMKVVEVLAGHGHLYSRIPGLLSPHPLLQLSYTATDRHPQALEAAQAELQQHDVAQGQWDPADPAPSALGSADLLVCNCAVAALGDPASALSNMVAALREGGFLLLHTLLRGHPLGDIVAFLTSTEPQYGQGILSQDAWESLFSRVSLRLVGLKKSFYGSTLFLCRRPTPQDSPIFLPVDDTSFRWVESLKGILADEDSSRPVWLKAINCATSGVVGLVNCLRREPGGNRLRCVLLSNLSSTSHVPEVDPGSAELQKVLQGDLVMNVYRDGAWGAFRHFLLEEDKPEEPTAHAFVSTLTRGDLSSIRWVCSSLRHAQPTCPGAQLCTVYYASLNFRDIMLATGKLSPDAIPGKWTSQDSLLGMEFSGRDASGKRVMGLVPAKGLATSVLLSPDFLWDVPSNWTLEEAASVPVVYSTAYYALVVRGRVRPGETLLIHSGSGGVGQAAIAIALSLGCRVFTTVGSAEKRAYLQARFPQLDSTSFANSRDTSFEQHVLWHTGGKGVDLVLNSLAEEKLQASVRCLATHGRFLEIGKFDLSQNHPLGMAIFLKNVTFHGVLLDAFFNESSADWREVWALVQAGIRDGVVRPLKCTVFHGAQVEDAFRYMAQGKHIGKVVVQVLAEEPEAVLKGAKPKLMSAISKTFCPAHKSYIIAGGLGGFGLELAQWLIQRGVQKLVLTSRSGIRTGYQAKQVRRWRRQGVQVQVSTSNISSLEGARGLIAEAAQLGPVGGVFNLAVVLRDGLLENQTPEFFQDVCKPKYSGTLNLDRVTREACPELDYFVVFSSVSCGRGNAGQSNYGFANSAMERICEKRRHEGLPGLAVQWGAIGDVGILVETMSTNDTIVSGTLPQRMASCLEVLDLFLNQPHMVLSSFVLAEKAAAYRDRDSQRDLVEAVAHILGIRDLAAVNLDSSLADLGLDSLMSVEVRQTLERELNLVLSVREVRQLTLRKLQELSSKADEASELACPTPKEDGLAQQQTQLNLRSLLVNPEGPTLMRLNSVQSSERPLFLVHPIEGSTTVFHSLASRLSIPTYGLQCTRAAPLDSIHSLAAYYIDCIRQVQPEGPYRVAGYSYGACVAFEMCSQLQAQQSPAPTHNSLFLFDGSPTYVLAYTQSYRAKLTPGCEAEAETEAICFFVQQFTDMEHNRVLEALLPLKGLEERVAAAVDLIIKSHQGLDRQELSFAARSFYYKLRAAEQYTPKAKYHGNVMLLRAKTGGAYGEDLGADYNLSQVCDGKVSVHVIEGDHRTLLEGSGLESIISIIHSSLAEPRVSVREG
FAD-linked sulfhydryl oxidase ALR, sequence (P55789 whole entry): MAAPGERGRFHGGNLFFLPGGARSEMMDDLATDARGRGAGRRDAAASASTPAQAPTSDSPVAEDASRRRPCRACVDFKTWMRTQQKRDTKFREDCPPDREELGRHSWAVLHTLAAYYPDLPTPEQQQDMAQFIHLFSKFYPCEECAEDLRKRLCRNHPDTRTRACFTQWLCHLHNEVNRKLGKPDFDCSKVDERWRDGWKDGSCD
Cytochrome P450 2C9, sequence (P11712 whole entry): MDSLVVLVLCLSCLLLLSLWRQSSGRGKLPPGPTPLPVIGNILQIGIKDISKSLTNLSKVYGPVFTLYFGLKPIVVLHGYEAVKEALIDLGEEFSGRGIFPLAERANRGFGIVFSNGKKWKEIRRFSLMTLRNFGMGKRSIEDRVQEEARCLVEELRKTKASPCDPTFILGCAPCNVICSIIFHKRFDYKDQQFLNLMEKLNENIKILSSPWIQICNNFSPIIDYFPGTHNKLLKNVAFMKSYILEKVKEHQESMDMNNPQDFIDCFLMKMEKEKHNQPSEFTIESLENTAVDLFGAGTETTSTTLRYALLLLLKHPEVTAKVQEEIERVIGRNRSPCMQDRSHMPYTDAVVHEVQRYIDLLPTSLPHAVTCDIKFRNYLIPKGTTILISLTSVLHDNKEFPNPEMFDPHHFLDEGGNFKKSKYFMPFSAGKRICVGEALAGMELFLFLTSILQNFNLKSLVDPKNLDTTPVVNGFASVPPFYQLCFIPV

CCCCCCOC(=O)c1ccccc1NC(=O)/C=C/C(=O)O
AC50 [1]: > 380 µM (inactive)
EC50 [2]: 3.41 µM (active)

CCCc1n[nH]c2c1C(c1ccccc1OC)C(C#N)=C(N)O2 (stereo not drawn)
AC50 [1]: 15.9 µM (active)
EC50 [2]: 2.07 µM (active)

Cc1ccc(C(=O)NCCNc2ncc(C(F)(F)F)cc2Cl)cc1[N+](=O)[O-]
IC50 [3]: 8.99 µM (active)
IC50 [4]: 9.8 µM (active)

Cc1ccc(Sc2c([N+](=O)[O-])ncn2C)cc1
AC50 [5]: 1.58 µM (inconclusive)
AC50 [1]: 112 µM (active)
EC50 [2]: 34.6 µM (active)
AC50 [6]: 0.27 µM (active)

O=S(=O)(Nc1cccc(-n2cnnn2)c1)c1cnc(Cl)c(Cl)c1
IC50 [3]: 5.37 µM (active)
IC50 [4]: 8.01 µM (active)

COc1ccc(CNCCc2c(C)[nH]c3ccc(OC(F)(F)F)cc23)c(OC)c1
EC50 [7]: 0.703 µM (active)
AC50 [8]: 9.13 µM (active)
EC50 [9]: > 60 µM (not active)
AC50 [10]: 8.45 µM (active)
AC50 [11]: 4.68 µM (active)
AC50 [12]: 0.963 µM (active)
EC50 [13]: > 120 µM (not active)
EC50 [14]: 17.7 µM (active)
EC50 [15]: > 120 µM (not active)

CC(C)(C)C(=O)Nc1nc(C2CCCN2S(=O)(=O)c2ccc(Cl)cc2)cs1 (stereo not drawn)
IC50 [3]: 9.08 µM (active)
IC50 [4]: 8.77 µM (active)

CN1CCN(CC(O)COc2ccc(C34CC5CC(CC(C5)C3)C4)cc2)CC1 (stereo not drawn)
AC50 [16]: 10.5 µM (active)

CCn1c(=O)c(C(=O)NNC(=O)c2ccccc2F)c(O)c2ccccc21
EC50 [17]: 6.68 µM (active)
EC50 [18]: 4.54 µM (active)
EC50 [19]: 11.5 µM (active)

COc1ccccc1CNc1nc(NCc2ccc(C(C)C)cc2)c2sccc2n1
AC50 [8]: 39.4 µM (active)
AC50 [10]: 10.5 µM (active)
AC50 [12]: 6.81 µM (active)

CN(C)C(CNC(=O)Nc1cccc(Cl)c1)c1cccnc1 (stereo not drawn)
EC50 [17]: 0.0267 µM (active)

CN1CCN(CCCNC(=O)c2ccc(/C=C3/Sc4ccccc4N(Cc4cccc(Cl)c4)C3=O)cc2)CC1
EC50 [7]: 0.11 µM (active)
AC50 [16]: 14 µM (active)
EC50 [9]: 5.71 µM (active)

CC1=NNC(=O)C1C(c1ccc(Cl)cc1)C(C#N)C#N (stereo not drawn)
AC50 [1]: 7.84 µM (active)
EC50 [2]: 3.26 µM (active)

O=C(COC(=O)c1cc([N+](=O)[O-])ccc1N1CCOCC1)NCc1ccc(Cl)cc1Cl
IC50 [3]: 0.912 µM (active)
IC50 [4]: 1.05 µM (active)

CCN1CCN(Cc2cc(Br)cc(Br)c2O)CC1
EC50 [17]: 0.0667 µM (active)
AC50 [6]: 11.2 µM (active)

CC(C)(C)[S@+]([O-])N1Cc2cc(C(=O)N[C@@H]3CCN(Cc4ccccc4)C3)nc(-c3cccc(-c4cccnc4)c3)c2[C@@H]1CCO
AC50 [20]: 2.62 µM (active)
AC50 [21]: 1.99 µM (active)
AC50 [22]: 1.93 µM (active)
AC50 [23]: 1.98 µM (active)

Clc1cc(Cl)cc(C2=NC(Cc3ccccc3)CO2)c1 (stereo not drawn)
EC50 [17]: 5.31 µM (active)

CC1(C)CC(=O)C=C(c2ccc(COC(=O)c3ccccc3)cc2)C1=O
IC50 [3]: 7.19 µM (active)
IC50 [4]: 3.75 µM (active)

COc1ccc(C#Cc2cnc3c(c2)C(=O)N([C@H](C)CO)C[C@H](C)[C@H](CN(C)S(=O)(=O)c2cccc(F)c2)O3)cc1OC
AC50 [20]: 1.8 µM (active)
AC50 [21]: 0.774 µM (active)
AC50 [22]: 1.38 µM (active)
AC50 [23]: 1.17 µM (active)

O=C(NNS(=O)(=O)c1ccc([N+](=O)[O-])cc1)c1cnn(-c2ccccc2)c1-n1cccc1
IC50 [3]: 4.5 µM (active)
IC50 [4]: 4.35 µM (active)

— ChEMBL document CHEMBL1201862, “PubChem BioAssay data set” (2004)
